From US9840478B2 (MERCK SHARP & DOHME CORP., priority 2013, dated 2017)

Each compound was assayed on HIV-1 (H9IIIB strain) (assay: Cell-based HIV infection assay using a reporter (Cell-Based), MT4-GFP cells). Details: Human immunodeficiency virus 1, MT4-GFP cells infected with HIV-1 H9IIIB; 50% normal human serum; mean of at least two independent experiments; read-out: Cell-based IP.
Protocol: Cell-Based HIV Infection Assay Using a Reporter (“Cell-Based”):
MT4-GFP cells contain a stably integrated HIV long terminal repeat promoter directing the transcription of green fluorescent protein (GFP). When HIV infects the cell, GFP is produced and the cell becomes green. MT4-GFP cells (250,000 cells/ml) were bulk-infected with HIV-1 (H9IIIB strain) at low multiplicity of infection (MOI) in RPMI media, supplemented with 10% FBS for 24 hours. Cells were then washed once in RPMI plus 10% FBS and resuspended in RPMI plus 50% normal human serum (NHS). Test compounds were serial-diluted in DMSO using an ECHO liquid dispenser. A control well included a combination of three HIV drugs (an inhibitor of HIV protease, integrase strand transfer and a non-nucleoside reverse transcriptase inhibitor; triple drug). The infected MT4-GFP cells were added to a 384-well poly-D-lysine coated black plate with clear bottom in which the diluted test compounds were placed. The cells were seeded in the plate at 8,000 cells per well and the final DMSO concentration was 0.4%. Infected cells were quantified at both 24 and 48 hours post incubation using an Acumen eX3 plate reader. Viral reproductive ratio (R0) was determined using the number of infected cells at 48 hours divided by the number of infected cells at 24 hours. Percent viral growth inhibition was calculated by [1−(R−Rtripledrug)/(RDMSO−Rtripledrug)]*100. Compound potency IP or IC50 was determined with use of a 4-parameter dose response curve analysis.
In the case of `COc1ccccc1S(=O)(=O)N1[C@@H](CCc2c(F)cccc2NC(=O)[C@@H](N)[C@@H](c2ccc(F)cc2)c2cc(F)cc(F)c2)CNC[C@@H]1C` [Example 238, (βS)-β-(3,5-difluorophenyl)-4-fluoro-N-[3-fluoro-2-(2-{(2S,6S)-1-[(2-methoxyphenyl)sulfonyl]-6-methylpiperazin-2-yl}ethyl)phenyl]-L-phenylalaninamide], the IC50 is reported as 110 nM.
In the case of `COC(=O)N[C@H](C(=O)Nc1cccc(F)c1CC[C@H]1CNC[C@@H](C)N1S(=O)(=O)c1ccccc1)[C@@H](c1cc(F)cc(F)c1)C1CCOCC1` [Example 283, (βR)-3,5-difluoro-N-(3-fluoro-2-{2-[(2S,6R)-6-methyl-1-(phenylsulfonyl)piperazin-2-yl]ethyl}phenyl)-Nα-(methoxycarbonyl)-β-(tetrahydro-2H-pyran-4-yl)-L-phenylalaninamide], the IC50 is reported as 14 nM.
`CC(C)CC1CCCN1S(=O)(=O)N1CCNC[C@@H]1CCc1c(F)cncc1NC(=O)C[C@@H](c1ccc(F)cc1)c1cc(F)cc(F)c1` (stereo partly drawn) [Example 337, (3S)-3-(3,5-difluorophenyl)-N-(5-fluoro-4-{2-[(2S)-1-{[2-(2-methylpropyl)pyrrolidin-1-yl]sulfonyl}piperazin-2-yl]ethyl}pyridin-3-yl)-3-(4-fluorophenyl)propanamide] was tested, and the IC50 was 130 nM.
Compound `COC(=O)N[C@H](C(=O)Nc1cccc(F)c1CC[C@H]1CNC[C@H](C)N1S(=O)(=O)c1ccccc1)[C@@H](c1ccc(F)c(F)c1)C1CCOCC1` [Example 295, (βR)-3,4-difluoro-N-(3-fluoro-2-{2-[(2S,6S)-6-methyl-1-(phenylsulfonyl)piperazin-2-yl]ethyl}phenyl)-Nα-(methoxycarbonyl)-β-(tetrahydro-2H-pyran-4-yl)-L-phenylalaninamide] has an IC50 of 4.2 nM.
Compound `COc1ccc(S(=O)(=O)N2[C@@H](CCc3c(F)cncc3NC(=O)[C@@H](N)[C@@H](c3ccc(F)cc3)c3cc(F)cc(F)c3)CNC[C@@H]2C)cc1` [Example 244, (βS)-β-(3,5-difluorophenyl)-4-fluoro-N-[5-fluoro-4-(2-{(2S,6S)-1-[(4-methoxyphenyl)sulfonyl]-6-methylpiperazin-2-yl}ethyl)pyridin-3-yl]-L-phenylalaninamide] has an IC50 of 5.9 nM.
Work on `COC(=O)N[C@H](C(=O)Nc1cncc(F)c1CC[C@H]1CNC[C@H](C)N1S(=O)(=O)c1ccccc1Cl)[C@@H](c1ccc(F)cc1)c1cc(F)cc(F)c1` [Example 272, (βS)-N-[4-(2-{(2S,6S)-1-[(2-chlorophenyl)sulfonyl]-6-methylpiperazin-2-yl}ethyl)-5-fluoropyridin-3-yl]-β-(3,5-difluorophenyl)-4-fluoro-Nα-(methoxycarbonyl)-L-phenylalaninamide] yielded an IC50 of 49 nM.
`COC(=O)N[C@H](C(=O)Nc1cccc(F)c1CC[C@H]1CNC[C@H](C)N1S(=O)(=O)c1ccccc1)[C@@H](c1ccc(F)cc1)C1CCOCC1` [Example 7, Methyl ((2S,3R)-1-((3-fluoro-2-(2-((2S,6S)-6-methyl-1-(phenylsulfonyl)piperazin-2-yl)ethyl)phenyl)amino)-3-(4-fluorophenyl)-1-oxo-3-(tetrahydro-2H-pyran-4-yl)propan-2-yl)carbamate] showed an IC50 of 6 nM.
With `COC(=O)N[C@H](C(=O)Nc1cccc(F)c1CC[C@H]1CNC[C@H](C)N1S(C)(=O)=O)[C@@H](c1ccc(F)cc1)c1cc(F)cc(F)c1` [Example 99, (βS)-β-(3,5-difluorophenyl)-4-fluoro-N-(3-fluoro-2-{2-[(2S,6S)-6-methyl-1-(methylsulfonyl)piperazin-2-yl]ethyl}phenyl)-Nα-(methoxycarbonyl)-L-phenylalaninamide] the IC50 was 16 nM.
`C[C@H]1CNC[C@H](CCc2c(F)cccc2NC(=O)[C@@H](N)[C@@H](c2cc(F)cc(F)c2)C2CCOCC2)N1S(=O)(=O)c1ccccc1` [Example 294, (βR)-3,5-difluoro-N-(3-fluoro-2-{2-[(2S,6S)-6-methyl-1-(phenylsulfonyl)piperazin-2-yl]ethyl}phenyl)-β-(tetrahydro-2H-pyran-4-yl)-L-phenylalaninamide] gave an IC50 of 40 nM.
`COC(=O)N[C@H](C(=O)Nc1cccc(F)c1CC[C@H]1CNC[C@@H](C)N1S(C)(=O)=O)[C@H](c1cccc(F)c1)c1cccc(Cl)c1` [Example 173, (βR)-3-chloro-N-(3-fluoro-2-{2-[(2S,6R)-6-methyl-1-(methylsulfonyl)piperazin-2-yl]ethyl}phenyl)-β-(3-fluorophenyl)-Nα-(methoxycarbonyl)-L-phenylalaninamide] showed an IC50 of 90 nM.
Work on `C[C@@H]1C[C@](c2ccc(Cl)cc2)([C@H](N)C(=O)Nc2cccc(F)c2CC[C@H]2CNC[C@H](C)N2S(=O)(=O)c2ccccc2)C[C@H](C)O1` [Example 300, (S)-2-amino-2-((2R,4r,6S)-4-(4-chlorophenyl)-2,6-dimethyltetrahydro-2H-pyran-4-yl)-N-(3-fluoro-2-(2-((2S,6S)-6-methyl-1-(phenylsulfonyl)piperazin-2-yl)ethyl)phenyl)acetamide] yielded an IC50 of 98 nM.
`Cn1cc(S(=O)(=O)N2CCNC[C@@H]2CCc2c(F)cncc2NC(=O)C[C@@H](c2ccc(F)cc2)c2cc(F)cc(F)c2)cn1` [Example 316, (3S)-3-(3,5-difluorophenyl)-N-[5-fluoro-4-(2-{(2S)-1-[(1-methyl-1H-pyrazol-4-yl)sulfonyl]piperazin-2-yl}ethyl)pyridin-3-yl]-3-(4-fluorophenyl)propanamide] showed an IC50 of 19 nM.
For `COC(=O)N[C@H](C(=O)Nc1cncc(F)c1CC[C@H]1CNC[C@H](C)N1S(=O)(=O)c1ccccc1)[C@@H](c1ccc(Cl)cc1)C1CCOCC1` [Example 274, (βR)-4-chloro-N-(5-fluoro-4-{2-[(2S,6S)-6-methyl-1-(phenylsulfonyl)piperazin-2-yl]ethyl}pyridin-3-yl)-Nα-(methoxycarbonyl)-β-(tetrahydro-2H-pyran-4-yl)-L-phenylalaninamide], the IC50 was 22 nM.
In the case of `COC(=O)N[C@H](C(=O)Nc1cccc(F)c1CC[C@H]1CNC[C@H](C)N1S(=O)(=O)c1ccccc1Cl)[C@@H](c1ccc(F)cc1)c1cc(F)cc(F)c1` [Example 231, (βS)-N-[2-(2-{(2S,6S)-1-[(2-chlorophenyl)sulfonyl]-6-methylpiperazin-2-yl}ethyl)-3-fluorophenyl]-β-(3,5-difluorophenyl)-4-fluoro-Nα-(methoxycarbonyl)-L-phenylalaninamide], the IC50 is reported as 230 nM.
With `C[C@H]1CNC[C@H](CCc2c(F)cccc2NC(=O)[C@@H](N)[C@@H](c2ccc(Cl)cc2)c2cc(F)cc(F)c2)N1S(C)(=O)=O` [Example 198, (βS)-4-chloro-β-(3,5-difluorophenyl)-N-(3-fluoro-2-{2-[(2S,6S)-6-methyl-1-(methylsulfonyl)piperazin-2-yl]ethyl}phenyl)-L-phenylalaninamide] the IC50 was 21 nM.
In the case of `C[C@H]1CNC[C@H](CCc2c(F)cccc2NC(=O)[C@@H](N)[C@@H](c2ccc(Cl)cc2)C2CCOCC2)N1S(=O)(=O)C1CC1` [Example 141, (βR)-4-chloro-N-(2-{2-[(2S,6S)-1-(cyclopropylsulfonyl)-6-methylpiperazin-2-yl]ethyl}-3-fluorophenyl)-β-(tetrahydro-2H-pyran-4-yl)-L-phenylalaninamide], the IC50 is reported as 77 nM.
For `C[C@H]1CNC[C@@H](CCc2c(F)cccc2NC(=O)CC(c2ccc(F)cc2)c2ccc(F)cc2)N1S(=O)(=O)c1ccccc1` [Example 93, N-(3-fluoro-2-{2-[(2R,6S)-6-methyl-1-(phenylsulfonyl)piperazin-2-yl]ethyl}phenyl)-3,3-bis(4-fluorophenyl) propanamide], the IC50 was 120 nM.
Compound `N[C@H](C(=O)Nc1cccc(F)c1CC[C@H]1CNCCN1S(=O)(=O)c1ccccc1)[C@@H](c1ccc(Cl)cc1)c1cncc(F)c1` [Example 44, (βS)-4-chloro-N-(3-fluoro-2-{2-[(2S)-1-(phenylsulfonyl)piperazin-2-yl]ethyl}phenyl)-β-(5-fluoropyridin-3-yl)-L-phenylalaninamide] has an IC50 of 15 nM.
With `C[C@@H]1CNC[C@H](CCc2c(F)cccc2NC(=O)[C@@H](N)[C@@H](c2ccc(F)cc2)c2cc(F)cc(F)c2)N1S(=O)(=O)C1CC1` [Example 192, (βS)-N-(2-{2-[(2S,6R)-1-(cyclopropylsulfonyl)-6-methylpiperazin-2-yl]ethyl}-3-fluorophenyl)-β-(3,5-difluorophenyl)-4-fluoro-L-phenylalaninamide] the IC50 was 36 nM.
`O=C(C[C@@H](c1ccc(F)cc1)c1cc(F)cc(F)c1)Nc1cncc(F)c1CC[C@H]1CNCCN1S(=O)(=O)N1CCCC1` [Example 323, (3S)-3-(3,5-difluorophenyl)-3-(4-fluorophenyl)-N-(5-fluoro-4-{2-[(2S)-1-(pyrrolidin-1-ylsulfonyl)piperazin-2-yl]ethyl}pyridin-3-yl)propanamide] showed an IC50 of 4.8 nM.
`N[C@H](C(=O)Nc1cncc(F)c1CC[C@H]1CNCCN1S(=O)(=O)CC1CC1)[C@@H](c1ccc(F)cc1)c1cc(F)cc(F)c1` [Example 28, (βS)-N-[4-(2-{(2S)-1-[(cyclopropylmethyl)sulfonyl]piperazin-2-yl}ethyl)-5-fluoropyridin-3-yl]-3,5-difluoro-β-(4-fluorophenyl)-L-phenylalaninamide] gave an IC50 of 21 nM.
